The results in this text go back to patent publication US5629304A, “Therapeutic agent for thrombocytopenia and indolocarbazole derivatives” (Kyowa Hakko Kogyo Co., Ltd., priority 1994, dated 1997).

The subject of one assay is megakaryocyte colony formation (bone marrow cells). Description: Megakaryocyte colony formation-stimulating activity. The settings on record: 1 nM; control (IL-3 alone) defined as 100; IL-3 100 U/ml; 7 days. The format is cell-based, BALB/c mouse. The protocol: Megakaryocyte colony formation-stimulating activity
An eight-weeks-old BALB/c mouse was killed. Its femurs and cervical vertebrae were taken out, and both end sections thereof were cut off. Bone marrow cells were collected from the pieces cut off from the femurs and cervical vertebrae using a syringe containing IMDM (430-2200EA prepared by Gibco Co.), and then blown into a test tube. The test tube was allowed to stand for 5 minutes, and the supernatant was collected with a pipet. To a reaction mixture comprising the bone marrow cells (50,000 cells), bovine serum albumin (2%: A4508 made by Sigma Co.), transferrin (600 μg/ml: 652202 made by Boehringer Mannheim Co.), IL-3 (100 U/ml), cholesterol (16 μg/ml: 036-0641 made by Wako Co.) and agar (0.6%: 0142-02 made by Difco Laboratories) were separately added the test compounds at various concentrations, and 1 ml each of the mixtures was put into a 35-mm dish (Lux Co.), followed by incubation under the conditions of 37° C., 5% CO2 and a humidity of 95% or more for 7 days. Separately, IL-3 alone was added to the bone marrow cells to prepare a control. After the incubation was completed, the agar was dried over a filter paper (1001-055 made by Whatman Co.) and then fixed with 2.5% glutaraldehyde, followed by acetylcholinesterase staining (ACHE staining).
The ACHE staining was carried out by the method described below.
ACHE staining: To each sample was added a solution comprising 0.67 mg/ml acetylthiocholine iodide, 2.94 mg/ml sodium citrate, 7.5 mg/ml copper (II) sulfate and 1.65 mg/ml potassium ferricyanide, and the mixture was allowed to stand at room temperature in the dark for 4-6 hours.
A group of 4 or more megakaryocytes which were stained reddish brown was regarded as a colony, and the number of colonies per dish was calculated using a microscope. The results are shown in Table 2 as relative values to the control.
As to `C=CCn1c2ccccc2c2c3c(c4c5ccccc5n(CC=C)c4c21)C(=O)N(C)C3=O` [Compound 82], the “Rel. Value (megakaryocyte colonies per dish relative to the control)” value stood at 101.
In the case of `CN1Cc2c(c3c4ccccc4n(Cc4ccc(N(C)C)cc4)c3c3c2c2ccccc2n3Cc2ccc(N(C)C)cc2)C1=O` [Compound 20], the “Rel. Value (megakaryocyte colonies per dish relative to the control)” value amounted to 140.
On to `CN1C(=O)C(c2c[nH]c3ccccc23)=C(c2c[nH]c3ccccc23)C1=O` [Compound 93], for which the “Rel. Value (megakaryocyte colonies per dish relative to the control)” value was 109.
`O=C1NCc2c1c1c3ccccc3n(CCCO)c1c1c2c2ccccc2n1CCCO` [Compound 86]: the “Rel. Value (megakaryocyte colonies per dish relative to the control)” value was found to be 131.
Consider `CN1Cc2c(c3c4ccccc4n(C)c3c3c2c2ccccc2n3C)C1=O` [Compound 9], for which the “Rel. Value (megakaryocyte colonies per dish relative to the control)” value is listed as 128.
In the case of `CNCCCn1c2ccccc2c2c3c(c4c5ccccc5n(C)c4c21)C(=O)N(C)C3=O` [Compound 26], the “Rel. Value (megakaryocyte colonies per dish relative to the control)” value came to 117.
As for `CN1C(=O)c2c(c3c4ccccc4n(CC(O)CO)c3c3[nH]c4ccccc4c23)C1=O` (stereo not drawn) [Compound 83], the “Rel. Value (megakaryocyte colonies per dish relative to the control)” value was found to be 111.
The same measure, in the same setting: in the case of `CCOC(=O)Cn1c2ccccc2c2c3c(c4c5ccccc5n(CC(=O)OCC)c4c21)C(=O)NC3` [Compound 85] it was 125; in that of `CCN(CC)CCCn1c2ccc(Br)cc2c2c3c(c4c5cc(Br)ccc5n(C)c4c21)C(=O)N(C)C3=O` [Compound 110], 137.
Turning to `O=C1c2c(c3c4ccccc4[nH]c3c3[nH]c4ccccc4c23)CN1C1CCCCO1` (stereo not drawn) [Compound 89], the “Rel. Value (megakaryocyte colonies per dish relative to the control)” value was found to be 110.
Take `O=C1NCc2c1c1c3ccccc3[nH]c1c1c2c2ccccc2n1CCCN1CCOCC1` [Compound 88]: the “Rel. Value (megakaryocyte colonies per dish relative to the control)” value came out at 120.
On to `Cn1c2ccccc2c2c3c(c4c5ccccc5n(C)c4c21)C(=O)NC3` [Compound 91], for which the “Rel. Value (megakaryocyte colonies per dish relative to the control)” value was 111.
The same measure, in the same setting: under `CN1Cc2c(c3c4ccccc4[nH]c3c3[nH]c4ccccc4c23)C1=O` [Compound 80] stands 111.

The same assay, now with this note: 10 nM; control (IL-3 alone) defined as 100; IL-3 100 U/ml; 7 days.
On to `CN1C(=O)c2c(c3c4ccccc4n(CC(O)CO)c3c3c2c2ccccc2n3CC(O)CO)C1=O` (stereo not drawn) [Compound 84], for which the “Rel. Value (megakaryocyte colonies per dish relative to the control)” value was 132.
As to `O=C1NCc2c1c1c3ccccc3n(Cc3ccccc3)c1c1c2c2ccccc2n1Cc1ccccc1` [Compound 90], the “Rel. Value (megakaryocyte colonies per dish relative to the control)” value is 106.
For the compound `C=CCn1c2ccccc2c2c3c(c4c5ccccc5[nH]c4c21)C(=O)N(C)C3=O` [Compound 81], the “Rel. Value (megakaryocyte colonies per dish relative to the control)” value stood at 113.

For another assay, the system named is platelets. In words: Platelet Production-Stimulating Activity in Mice. Format: in vivo, BALB/c mice. The conditions noted are these: 20 mg/kg i.p. once a day, day 1 to 5; blood on day 15; vs solvent control. The source says: Platelet Production-Stimulating Activity in Mice
A test compound was intraperitoneally administered to four 7-week-old male BALB/c mice per group once a day for consecutive 5 days (day 1 to day 5). A control group (4 mice per group) received only the solvent (5% Tween 80/water). The blood was collected from the fundus oculi vein of each animal on the 15th day from the start of administration (day 15), and the number of the platelets was counted with a microcell counter (Model CC-180A, manufactured by Toa Iryo Denshi Co.). The rate of increase of the number of platelets in the test group (average) over the control (average) was calculated according to the following formula to evaluate the effect of the test compound.
A: the number of platelets in test group
B: the number of platelets in control group
For the compound `CN(C)CCCn1c2ccccc2c2c3c(c4c5ccccc5n(C)c4c21)C(=O)N(C)C3=O` [Compound 25], the “Rate of increase (number of platelets, A/B×100)” value (shortened to “Rate of increase”) is reported as 151%.

The same assay, now with this note: 25 mg/kg i.p. once a day, day 1 to 5; blood on day 15; vs solvent control.
Consider `CCN(CC)CCCn1c2ccc(O)cc2c2c3c(c4c5cc(O)ccc5n(C)c4c21)C(=O)N(C)C3=O` [Compound 108], for which the “Rate of increase” value is on record as 179%.

Staying with this assay, now noted: 40 mg/kg i.p. once a day, day 1 to 5; blood on day 15; vs solvent control.
Consider `CCCN(C)CCCn1c2ccccc2c2c3c(c4c5ccccc5n(C)c4c21)C(=O)N(C)C3=O` [Compound 31], for which the “Rate of increase” value is listed as 161%.
For `CCN(CC)CCCn1c2ccc(Br)cc2c2c3c(c4c5cc(Br)ccc5n(C)c4c21)C(=O)N(C)C3=O` [Compound 110], the “Rate of increase” value worked out at 184%.
Turning to `CCN(CC)CCCn1c2ccccc2c2c3c(c4c5ccccc5n(C)c4c21)C(=O)N(C)C3=O` [Compound 27], the “Rate of increase” value is recorded as 187%.
